Like-named read-outs stand apart in the source and are kept apart here.
Test system: RBL-2H3 cells
Assay: IgE-mediated RBL-2H3 cell degranulation model (β-hexosaminidase release), in vitro anti-allergic activity test
Type: cell-based
Settings: for Degranulation efficiency (%): RBL-2H3 cells, anti-DNP-IgE sensitized, DNP-BSA stimulated
Source text: Currently available mast cell lines are not suitable for in vitro subculturing, and thus it is difficult to obtain a large number of homogeneous cells for experimental research. The RBL-2H3 cell line is similar to mast cells in cell structure and degranulation mechanism, and more importantly, it is possible to realize a stable subculturing of the line. Thus, the RBL-2H3 cell line is usually used as an alternative model of mast cells in the studies on mast cell functions and further researches of allergic diseases.
In the present embodiment, an IgE-mediated RBL-2H3 cell model was employed to measure the degranulation efficiency of sensitized cells, followed by a calculation to obtain the inhibitory of the compound against the cell degranulation and to further obtain the anti-allergic activity of the compound.
This embodiment was conducted with the following four groups:
(1) negative control group (non-activated group);
(2) blank control group (DNP-BSA-activated group);
(3) positive control group (loratadine group); and
(4) compound group (the compound obtained in step (5) in Embodiment 1).
This embodiment was conducted as follows:
(1) Sensitizing the cells: The RBL-2H3 cells were collected with trypsinization, and added into 96-well plates, 100 μL in each well, followed by the addition of anti-DNP-IgE to a final concentration of 1 μg/mL to sensitize the cells, and incubated in an incubator overnight (37° C., 5% CO2).
(2) Pre-protection of the cells: In the negative control group, 5, μL of PBS and 95 μL of Tyrode's buffer solution were added to each sample. In the blank control group, 5 μL of DNP-BSA and 95 μL of Tyrode's buffer solution were added to each sample. In the positive control group, 5 μL of loratadine (of various concentrations) and 95 μL of Tyrode's buffer solution were added to each sample. In the compound group, 5 μL of the compound solution (in PBS, with a final concentration of 1.25, 0. 625, 0.3125, 0.15625, 0.078125, or 0.0390625 μg/mL) and 95 μL of Tyrode's buffer solution were added to each sample. After the addition of above reagents, 95 μL of the cells were then added to culture plates, and incubated for 1 hour.
(3) Stimulating the cells: In the negative control group, 5 μL of PBS was added to each sample. In the other three groups, 5 μL of DNP-BSA was added to a final concentration of 1 μg/mL to stimulate the RBL-2H3 cells, and incubated for 1 hour.
(4) Disintegration of the cells: The culture supernatants were collected, and then the Tyrode's buffer solution (containing 0.1% of Triton X-100) was added to the culture plates to disintegrate the cells so as to obtain lysate solutions.
(5) β-hexosaminidase activity measurement: The supernatants and the lysate solutions were added to 96-well plates for fluorescent assays, 25 μL in each well, followed by the addition of 100 μL of 1.2 mM 4-methylumbelliferyl-N-acetyl-β-d-glucosaminide to allow reaction at 37° C. for 30 minutes. Then the fluorescence (excitation wavelength: 360 nm, emission wavelength: 450 nm) of the solution in each well was measured using a microplate reader.
(6) Calculation of degranulation efficiency:
Degranulation efficiency was calculated through the following expression:
wherein, FS represent the fluorescence of supernatant, and FL represents the fluorescence of lysate solution.
(7) Calculation of inhibitory rate on allergy
Inhibitory rate was calculated with the following expression:
wherein DEB represents the degranulation efficiency of blank control group, DEC represents the degranulation efficiency of compound group and DEN represents the degranulation efficiency of negative control group.

[1] = Rattus norvegicus, RBL-2H3, read-out: Inhibitory rate (%)

Compound | inhibitory effect on mast cell degranulation (IgE-mediated RBL-2H3 cell model, result in words) | Degranulation efficiency (%) (compound 0.0390625 μg/mL) | Degranulation efficiency (%) (compound 0.078125 μg/mL) | Degranulation efficiency (%) (compound 0.15625 μg/mL) | Degranulation efficiency (%) (compound 0.3125 μg/mL) | Degranulation efficiency (%) (compound 0.625 μg/mL) | Degranulation efficiency (%) (compound 1.25 μg/mL) | IC50 (Rattus norvegicus, RBL-2H3) | inhibition at 0.0390625 µg/mL [1] | inhibition at 0.078125 µg/mL [1] | inhibition at 0.15625 µg/mL [1] | inhibition at 0.3125 µg/mL [1] | inhibition at 0.625 µg/mL [1] | inhibition at 1.25 µg/mL [1] | IC50 (Rattus norvegicus, concentration of the compound when the inhibitory rate is 50%, RBL-2H3 degranulation, read-out: IC50)
COc1cc(O)cc2c1C(=O)c1c(cc3c(c1O)C1C=COC1O3)C2=O (stereo not drawn) [Compound] | strong inhibitory effect | 52.86% | 48.53% | 38.46% | 35.61% | 24.46% | 14.29% | 1.87 µM | -15.2% | -3.38% | 24.2% | 32.1% | 62.7% | 90.6% | –
CCOC(=O)N1CCC(=C2c3ccc(Cl)cc3CCc3cccnc32)CC1 [loratadine, reference compound] | – | – | – | – | – | – | – | – | – | – | – | – | – | – | 91.6 µM
